Assay: In vivo experiments: activity level after removal of a component
Details: named component removed from product
Text: The basis for the disclosure that 2-6 methoxy substituted benzoquinones is not an active component of the present invention is vivo experiments.

Compound	activity level of the present invention when the component was removed
COC1=CC(=O)C=CC1=O [b, monomethoxy-1,4-benzoquinone]	decreased
2-6 methoxy substituted benzoquinones	remained unchanged
COc1cc(O)cc(OC)c1O [a, 2,6-dimethoxy-1,4-hydroquinone]	decreased
COc1cc(O)ccc1O [c, monomethoxy-1,4-hydroquinone]	decreased

Reference: patent US11129389B2, “Gluten-free grain-concentrate substitute for fermented wheat germ food product and method of preparation” (priority 2013, dated 2021)
